Earlier results, collected in patent US20130184245A1, “ENDOMETRIOSIS TREATMENT” (DRUGTECH CORPORATION, priority 2007, published 2013).
Like-named read-outs stand apart in the source and are kept apart here.

Legend:
women with endometriosis [1] = system: women with endometriosis
[2] = system: women with endometriosis and chronic pelvic pain symptoms; settings: intravaginal danazol therapy, 22 women
[3] = system: deeply infiltrating endometriosis
women with endometriosis [4] = settings: intravaginal gel, 100 to 200 mg/day
[5] = intravaginal gel, 100 to 200 mg/day
endometriosis = settings: daily administration of 5 mg danazol in suppository form
[6] = intravaginal danazol therapy
[7] = not given; remark: listed apart in the source
pelvic endometriosis [8] = system: pelvic endometriosis
pelvic endometriosis [9] = settings: vaginal ring containing 1000 mg danazol
[10] = vaginal suppository 100 mg/day versus per os 400 mg/day

Row | serum danazol concentrations (oral therapy with danazol at 400 mg/day) | serum danazol concentrations (vaginal danazol therapy (ring 1500 mg)) | plasma levels of danazol [5] | peripheral levels of danazol [6] | serum danazol levels ([7]; danazol 400 mg/day per os) | serum danazol levels ([7]; topical danazol administration (vaginal ring 1000 mg)) | danazol concentrations in the ovary and uterus, vaginal versus oral administration [10] | serum danazol concentration, vaginal versus oral administration [10] | SMILES | side effects such as seborrhea, acne and weight gain, versus oral (women with endometriosis [1]; vaginal administration) | effectiveness in reducing dyspareunia and dysmenorrhea versus oral gestrinone therapy (women with endometriosis [1]; vaginal route, women with endometriosis) | management of chronic pelvic pain secondary to pelvic endometriosis [2] | side effect profile, systemic androgen-like effects [2] | women in whom ovulation and conception occurred ([3]; out of 31 infertile women with deeply infiltrating endometriosis, vaginal ring 1500 mg) | time to elimination of dysmenorrhea ([3]; vaginal ring containing 1500 mg danazol) [months] | effect on chronic pelvic pain (women with endometriosis [4]) | systemic androgenic side effects (women with endometriosis [4]) | effect on dyspareunia and dysmenorrhea (endometriosis) | women in whom conception was enabled while the ring was in place (pelvic endometriosis [8]; of 35 infertile women, vaginal ring 2000 to 3500 mg danazol) | effect on dysmenorrhea and pelvic endometriosis (pelvic endometriosis [8]; vaginal ring containing 2000 to 3500 mg danazol, 35 infertile women) | efficacy in treating pelvic endometriosis (pelvic endometriosis [9])
1 |  |  |  |  |  |  |  |  | C#C[C@]1(O)CC[C@H]2[C@@H]3CCC4=CC(=O)CCC4=C3C=C[C@@]21CC [gestrinone, ethylnorgestrienone] | significantly lower | equally effective |  |  |  |  |  |  |  |  |  | 
2 | high | undetectable | low to undetectable | undetectable | exceeded 100 ng/ml | undetectable | comparable | much lower | C#C[C@]1(O)CC[C@H]2[C@@H]3CCC4=Cc5oncc5C[C@]4(C)[C@H]3CC[C@@]21C [danazol, 17α-ethynyl-17β-hydroxy-4-androsteno[2,3-d]-isoxazole] |  |  | effective | paucity of systemic androgen-like effects | 17 | ≤ 3 | significantly reduced | lack of systemic androgenic side effects | remission | 13 | reduced dysmenorrhea and pelvic endometriosis | very effective
